Reference: patent publication US6303630A, “Diarylsulfone non-nucleoside reverse transcriptase inhibitors of human immunodeficiency virus” (University of the Sciences in Philadelphia, priority 2000, dated 2001)
Where two headings read alike, the source gives them in different places.

Assays:
[1] = test system: T4 lymphocytes (CEM cell line); assay: Cell growth / toxicity control in uninfected T4 lymphocytes (CEM), XTT-formazan; format: cell-based; conditions: Homo sapiens, CCRF-CEM; for IC50: 144 h, approximate values; for activity at 200 µM: dose 2.00 × 10^-4 Molar; for activity at 200 µM / activity at 20 µM / activity at 2 µM / activity at 0.2 µM / activity at 63.2 µM / activity at 6.33 µM / activity at 0.634 µM / activity at 0.0635 µM / activity at 0.02 µM / activity at 6.32 µM / activity at 0.633 µM / activity at 0.0634 µM / activity at 0.00635 µM: read-out: Percent of Control, Uninfected; for activity at 20 µM: dose 2.00 × 10^-5 Molar; for activity at 2 µM: dose 2.00 × 10^-6 Molar; for activity at 0.2 µM: dose 2.00 × 10^-7 Molar; for activity at 63.2 µM: dose 6.32 × 10^-5 Molar; for activity at 6.33 µM: dose 6.33 × 10^-6 Molar; for activity at 0.634 µM: dose 6.34 × 10^-7 Molar; for activity at 0.0635 µM: dose 6.35 × 10^-8 Molar; for activity at 0.02 µM: dose 2.00 × 10^-8 Molar; for activity at 6.32 µM: dose 6.32 × 10^-6 Molar; for activity at 0.633 µM: dose 6.33 × 10^-7 Molar; for activity at 0.0634 µM: dose 6.34 × 10^-8 Molar; for activity at 0.00635 µM: dose 6.35 × 10^-9 Molar
Description: (§1) The NCI procedure is fully described, for example, in a bulletin provided by the National Institutes of Health, National Cancer Institute, Bethesda, Md. 20892, all of which is incorporated herein by reference. As related in the NCI bulletin, the procedure is based on O. W. Weislow et al., "New soluble-formazan assay for HIV-1 cytopathic effects: application to high flux screening of synthetic and natural products for AIDS-antiviral activity", J. Natl. Cancer Inst. 81:577-586 (1989), and is used to test for compounds active against human immunodeficiency virus (HIV), and is designed to detect compounds active at any stage of the virus reproductive cycle. As further related in the NCI bulletin, the assay includes killing of T4 lymphocytes by HIV. Amounts of HIV are added to cells, with a minimum of two cycles of virus reproduction found to be necessary to obtain the required cell killing. Compounds that interact with virions, cells, or virus gene-products to interfere with viral activities will protect cells from cytolysis. All were compared with a positive (e.g., AZT-treated) control evaluation at the same time under identical conditions. The procedure is set forth as follows:
(§2) A candidate compound is first dissolved in a suitable solvent, preferably dimethyl sulfoxide, then diluted 1:100 in cell culture medium before preparing serial half-log10 dilutions. T4 lymphocytes (CEM cell line) are then added and after a brief interval HIV-1 is added, resulting in a 1:200 final dilution of the compound. Uninfected cells with the compound serve as a toxicity control, and infected and uninfected without the compound serve as basic controls. Cultures are then incubated at 37° in a 5% carbon dioxide atmosphere for 6 days. The tetrazolium salt, XTT, is added to all wells, and cultures are incubated to allow formazan color development by viable cells. Individual wells are analyzed spectrophotometrically to quantitate formazan product, and in addition are viewed microscopically for detection of viable cells and confirmation of protective activity. Drug-treated virus-infected cells are compared with drug-treated noninfected cells and with other appropriate controls (untreated infected and untreated noninfected cells, drug-containing wells without cells, etc.) on the same plate. Data are reviewed in comparison with other tests performed at the same time and a determination as to activity is made.

[2] = test system: HIV-1; assay: NCI in vitro anti-HIV drug screen: XTT-formazan assay, protection of T4 lymphocytes (CEM) from HIV-1 cytopathic effects; format: cell-based, human immunodeficiency virus (HIV-1); conditions: for EC50 / inhibition at 200 µM / inhibition at 2 µM / inhibition at 0.2 µM / inhibition at 0.634 µM / inhibition at 20 µM / inhibition at 63.2 µM / inhibition at 6.33 µM / inhibition at 0.0635 µM / inhibition at 0.02 µM / inhibition at 6.32 µM / inhibition at 0.633 µM / inhibition at 0.0634 µM / inhibition at 0.00635 µM: Human immunodeficiency virus 1, CCRF-CEM; for EC50: 144 h, HIV-1 infected CEM cells, 6 days, XTT, approximate values, read-out: EC50 (50% effective concentration against HIV cytopathic effects); for inhibition at 2 µM / activity at 2 µM: dose 2.00 × 10^-6 Molar; for inhibition at 0.2 µM / activity at 0.2 µM: dose 2.00 × 10^-7 Molar; for TI50 (IC/EC), Therapeutic Index: IC50/EC50; for inhibition at 0.02 µM / activity at 0.02 µM: dose 2.00 × 10^-8 Molar; for inhibition at 6.32 µM / activity at 6.32 µM: dose 6.32 × 10^-6 Molar; for inhibition at 0.633 µM / activity at 0.633 µM: dose 6.33 × 10^-7 Molar
Protocol: Compounds of the present invention were evaluated for anti-HIV efficacy by the National Cancer Institute's (NCI) In Vitro Anti AIDS Drug Discovery Program.
as §1, §2

[3] = read-out: IC50 (50% inhibitory concentration for cell growth), uninfected CEM cells, 6 days, XTT
[4] = dose 2.00 × 10^-4 Molar, read-out: Percent of Protection
[5] = read-out: Percent of Protection
[6] = Human immunodeficiency virus 1, Lymphocyte, read-out: Percent of Control, Infected
[7] = Human immunodeficiency virus 1, Lymphocyte, dose 6.34 × 10^-7 Molar, read-out: Percent of Control, Infected
[8] = Human immunodeficiency virus 1, Lymphocyte, dose 6.35 × 10^-8 Molar, read-out: Percent of Control, Infected
[9] = uninfected CEM cells, 6 days, XTT, read-out: IC50 (50% inhibitory concentration for cell growth)
[10] = dose 2.00 × 10^-5 Molar, read-out: Percent of Protection
[11] = Human immunodeficiency virus 1, Lymphocyte, dose 2.00 × 10^-5 Molar, read-out: Percent of Control, Infected
[12] = Human immunodeficiency virus 1, Lymphocyte, dose 6.34 × 10^-8 Molar, read-out: Percent of Control, Infected
[13] = Human immunodeficiency virus 1, Lymphocyte, dose 6.35 × 10^-9 Molar, read-out: Percent of Control, Infected

SMILES | IC50 [1, 3] [µM] | activity at 200 µM [1] [%] | activity at 20 µM [1] [%] | activity at 2 µM [1] [%] | activity at 0.2 µM [1] [%] | activity at 63.2 µM [1] [%] | activity at 6.33 µM [1] [%] | activity at 0.634 µM [1] [%] | activity at 0.0635 µM [1] [%] | EC50 [2] [µM] | inhibition at 200 µM [2, 4] [%] | inhibition at 2 µM [2, 5] [%] | inhibition at 0.2 µM [2, 5] [%] | activity at 2 µM [2, 6] [%] | activity at 0.2 µM [2, 6] [%] | activity at 0.634 µM [2, 7] [%] | activity at 0.0635 µM [2, 8] [%] | TI50 (IC/EC), Therapeutic Index [2] | inhibition at 20 µM [2, 10] [%] | activity at 20 µM [2, 11] [%] | also measured
Cc1ccc(N(C)S(=O)(=O)c2ccccc2[N+](=O)[O-])cc1 [Compound 31, N-(2-nitrophenylsulfonyl)-N,4-dimethylaniline] | 388 | -0.75 | 84.3 | 84.1 | 95.8 | 24.6 | 91.1 | 89.9 | 92.9 | 12.5 | -0.58 | 9.89 | -1.72 | 14.4 | 3.37 | 2.29 | 1.67 | 31.0 × 10^0 | – | – | inhibition at 0.634 µM ([2]; dose 6.34 × 10^-7 Molar, read-out: Percent of Protection): -2.85%; inhibition at 20 µM ([2]; read-out: Percent of Protection, dose 2.00 × 10^-5 Molar): 73.6%; inhibition at 63.2 µM ([2]; read-out: Percent of Protection, dose 6.32 × 10^-5 Molar): 18.4%; inhibition at 6.33 µM ([2]; read-out: Percent of Protection, dose 6.33 × 10^-6 Molar): 22%; inhibition at 0.0635 µM ([2]; read-out: Percent of Protection, dose 6.35 × 10^-8 Molar): -3.51%
CNc1c(Cl)cccc1S(=O)(=O)c1ccccc1[N+](=O)[O-] [Compound 78, 2-(2-nitrophenylsulfonyl)-6-chloro-N-methylaniline] | – | – | 85.5 | 85.6 | 85.2 | – | – | – | – | 0.22 | – | 93.9 | 45.9 | 94.1 | 47 | – | – | > 9.08 × 10^+1 | 89.5 | 89.8 | IC50 [1, 9]: > 20 µM; activity at 0.02 µM [1]: 92.2%; activity at 6.32 µM [1]: 91.5%; activity at 0.633 µM [1]: 86.4%; activity at 0.0634 µM [1]: 87.4%; activity at 0.00635 µM [1]: 88.5%; inhibition at 0.02 µM [2, 5]: 8.88%; inhibition at 6.32 µM [2, 5]: 96%; inhibition at 0.633 µM [2, 5]: 100%; inhibition at 0.0634 µM ([2]; dose 6.34 × 10^-8 Molar, read-out: Percent of Protection): 12.2%; inhibition at 0.00635 µM ([2]; dose 6.35 × 10^-9 Molar, read-out: Percent of Protection): 2.69%; activity at 0.02 µM [2, 6]: 10.7%; activity at 6.32 µM [2, 6]: 96%; activity at 0.633 µM [2, 6]: 100%; activity at 0.0634 µM [2, 12]: 13.9%; activity at 0.00635 µM [2, 13]: 4.64%
Cc1cc2c(c(S(=O)(=O)c3ccccc3[N+](=O)[O-])c1)NCCC2 [Compound 50, 8-(2-nitrophenyIsulfonyl)6-methyl-1,2,3,4-tetrahydroquinoline] | > 20 | – | 101 | 91 | 87.1 | – | – | – | – | 0.0751 | – | 107 | 86.3 | 106 | 87.6 | – | – | > 2.66 × 10^-2 | 97.4 | 97.6 | activity at 0.02 µM [1]: 88.4%; activity at 6.32 µM [1]: 91.2%; activity at 0.633 µM [1]: 89.3%; activity at 0.0634 µM [1]: 90.5%; activity at 0.00635 µM [1]: 90.2%; inhibition at 0.02 µM [2, 5]: -2.76%; inhibition at 6.32 µM [2, 5]: 109%; inhibition at 0.633 µM [2, 5]: 84.2%; inhibition at 0.0634 µM ([2]; read-out: Percent of Protection, dose 6.34 × 10^-8 Molar): 44.1%; inhibition at 0.00635 µM ([2]; read-out: Percent of Protection, dose 6.35 × 10^-9 Molar): -3.62%; activity at 0.02 µM [2, 6]: 6.49%; activity at 6.32 µM [2, 6]: 108%; activity at 0.633 µM [2, 6]: 85.7%; activity at 0.0634 µM [2, 12]: 49.1%; activity at 0.00635 µM [2, 13]: 5.71%
CNc1ccc(Cl)cc1S(=O)(=O)c1ccccc1 [Compound 57, 2-phenylsulfonyl-4-chloro-N-methylaniline] | – | 75.9 | 87.2 | 91.5 | 92 | 97.2 | 89.6 | 86.4 | 91.9 | 9.84 | 22 | 2.94 | 0.57 | 9.73 | 7.53 | 5.9 | 5.77 | > 2.03 × 10^-1 | 94 | 94.4 | IC50 [1, 9]: > 200 µM; inhibition at 63.2 µM ([2]; dose 6.32 × 10^-5 Molar, read-out: Percent of Protection): 91.9%; inhibition at 6.33 µM ([2]; dose 6.33 × 10^-6 Molar, read-out: Percent of Protection): 22.9%; inhibition at 0.0635 µM ([2]; dose 6.35 × 10^-8 Molar, read-out: Percent of Protection): -1.32%; inhibition at 0.634 µM ([2]; read-out: Percent of Protection, dose 6.34 × 10^-7 Molar): -1.18%; activity at 200 µM ([2]; Human immunodeficiency virus 1, Lymphocyte, dose 2.00 × 10^-4 Molar, read-out: Percent of Control, Infected): 27.5%; activity at 63.2 µM ([2]; Human immunodeficiency virus 1, Lymphocyte, dose 6.32 × 10^-5 Molar, read-out: Percent of Control, Infected): 92.5%; activity at 6.33 µM ([2]; Human immunodeficiency virus 1, Lymphocyte, dose 6.33 × 10^-6 Molar, read-out: Percent of Control, Infected): 28.3%
